This note sets out measurements from patent US20050130903A1, “Therapeutic agents and methods of use thereof for the modulation of angiogenesis” (priority 2000, published 2005).

Where two headings read alike, the source gives them in different places.

The nature of data set [1]: stability in liver microsomes. It is filed as in vitro ADME, rat. The conditions noted are these: male, rat, liver microsomes, pH 7.4, male rat liver microsomes 0.5 mg/mL, NADPH regenerating system. How it is done: The stability of the angiogenesis inhibitor compounds in liver microsomes was also tested. The test angiogenesis inhibitor compound at a concentration of 3 μM was incubated with male rat liver microsomes (0.5 mg/mL protein) in the presence of a NADPH regenerating system (1 mM NADP, 10 mM G6P, 1 U/mL G6PdH2, 3 mM MgCl2 ) in 100 mM Phosphate buffer at pH 7.4 at 37° C. Incubations were performed in the presence and absence of 1 μM epoxide hydrolase (EH) inhibitor N-cyclohexyl-N′-(3-phenylpropyl)urea (M. Morisseau et al. (1999) PNAS 96:8849-54) and quantitative analysis performed using LC/MS/MS.
The parent compound remaining (relative to time 0) in the incubation mixture was plotted as a function of time; a first order exponential equation was fit to the observed data, and the elimination half-lives associated with the disappearance of the test compound were determined.
In general terms: Liver microsomes are a subcellular fraction often used to study metabolism.

A short description of data set [2]: plasma stability in human plasma. To be noted: human. It counts as in vitro ADME. How it is done:
The plasma stability of the angiogenesis inhibitor compounds of the invention was also tested in human plasma at 37° C. (at a 20 μM concentration of the angiogenesis inhibitor compound). The matrix minus the test angiogenesis inhibitor compound was equilibrated at 37° C. for 3 minutes. The assay was initiated by addition of the test compound, and the reaction mixture was incubated in a shaking water bath at 37° C. […] The supernatant was analysed by Liquid Chromatography/Mass spectrometry (LC/MS) using a four point standard curve to obtain percent recovery.
The parent compound remaining (relative to time 0) in the incubation mixture was plotted as a function of time; a first order exponential equation was fit to the observed data, and the elimination half-lives associated with the disappearance of the test angiogenesis inhibitor compound were determined.

For data set [3], the system named is human tumor cell lines. As to the kind of experiment: panel of cancer cell lines, overall. It is filed as cell-based. To be noted: in words, summary of Table VIII. How it is done:
The compound of example 5 was also evaluated against a panel of cancer cell lines (Alley, M. C. et al. […] Cancer Research 48: 589-601; Grever, M. R., et al. (1992) Seminars in Oncology, Vol. 19, No. 6, pp 622-638; Boyd, M. R., and Paull, K. D. (1995) Drug Development Research 34: 91-109). The human tumor cell lines of the cancer screening panel were grown in RPMI 1640 medium containing 5% fetal bovine serum and 2 mM L-glutamine. Cells were inoculated into 96 well microtiter plates in 100 μL at plating densities ranging from 5,000 to 40,000 cells/well depending on the doubling time of individual cell lines. […]
Following drug addition, the plates were incubated for an additional 48 hours at 37° C., 5% CO2, 95% air, and 100% relative humidity. […] Bound stain was subsequently solubilized with 10 mM trizma base, and the absorbance was read on an automated plate reader at a wavelength of 515 nm. […] Using the seven absorbance measurements [time zero, (Tz), control growth, (C), and test growth in the presence of drug at the five concentration levels (Ti)], the percentage growth was calculated at each of the drug concentrations levels.
Percentage growth inhibition was calculated as: [(Ti−Tz)/(C−Tz)]×100 for concentrations for which Ti>/=Tz [(Ti−Tz)/Tz]×100 for concentrations for which Ti<Tz. […]

Data set [4] deals with collagen-induced arthritis. As to the kind of experiment: collagen-induced arthritis model. To be noted: for mean radiological evaluation score: control group 2.2. It is filed as in vivo, Louvain rats. How it is done: The efficacy of the compound described above in example 5 was evaluated using a collagen-induced arthritis model. Briefly, syngeneic 8-week-old female Louvain rats were immunized intradermally under ether anesthesia on Day 0 with 0.5 mg chick collagen II (Genzyme, Boston, Mass.) solubilized in 0.1M acetic acid and emulsified in Incomplete Freund's Adjuvant (Difco, Detroit, Mich.). Using this method, more than 90% of rats typically develop synovitis in both hind limbs 10-14 days post immunization. […] The compound of example 5 was dissolved in a combination of ethanol and distilled water. The rats were dosed commencing on day 10 post immunization as follows: (1) control group: vehicle only daily via intravenous injection (iv) (12 rats), (2) high dose group: 30 mg/kg of the compound of example 5 iv every other day (12 rats), (3) low dose group: 15 mg/kg of the compound of example 5 iv every day (12 rats) and (4) oral group: 100 mg/kg of the compound of example 5 every other day by gavage (11 rats).
Daily clinical evaluations of each paw were graded on an integer scale ranging from 0 to 4, where a score of 0 indicates a normal, unaffected limb, and 4 indicates severe joint destruction. The clinical score is the sum of the four limb scores, and has a maximum possible value of 16. Collagen induced arthritis typically develops only in the hind limbs; therefore, a score of 6 to 8 represents severe arthritis.
Radiologic evaluations of the hind limbs were performed by an investigator blinded to the treatment protocol. The score assigned to each limb was based on (1) the degree of soft tissue swelling, (2) narrowing of the space between joints, (3) degree of periosteal new bone formation and (4) the presence of erosions or ankylosis. Each limb was scored on a scale of 1 to 3, with 1 representing a normal limb and 3 representing severe joint destruction.

As to `CO[C@@H]1[C@H](OC(=O)N[C@@H](C(N)=O)C(C)C)CC[C@]2(CO2)[C@H]1[C@@]1(C)O[C@@H]1CC=C(C)C` [Example 5, (1-Carbamoyl-2-methyl-propyl)-carbamic acid-(3R,4S,5S,6R )-5-methoxy-4-[(2R,3R)-2-methyl-3-(3-methyl-but-2-enyl)-oxiranyl]-1-oxa-spiro[2.5]oct-6-yl ester], the half-life at 3 μM in data set [1] (with 1 μM EH inhibitor, read-out: T1/2 (with EH inhibitor)) amounted to 12.1 ± 1 min. The half-life at 3 μM in data set [1] (without EH inhibitor, read-out: T1/2 (without EH inhibitor)) is 11.9 ± 1 min. In data set [2], this compound displayed a recovery at 0 min, 20 μM of 100%; a recovery at 15 min, 20 μM of 108%; a recovery at 30 min, 20 μM of 103%; a recovery at 60 min, 20 μM of 97%. For the same compound, in data set [2], the recovery at 90 min, 20 μM was 129% and the recovery at 120 min, 20 μM worked out at 107%. The same compound yielded a half-life at 20 μM in data set [2] (plasma) of no less than 500 min. Also, in data set [3], the “inhibitory effect on tumor cell lines” value was “significant inhibitory effect on a wide variety of tumor cell lines”. Moreover, the “mean daily clinical score (FIG. 2)” value in data set [4] (each treatment group, 19 day period from day 10) is recorded as “significant therapeutic benefit”. Further, the “mean radiological evaluation score” value in data set [4] (high dose group: 30 mg/kg iv every other day) turned out to be 0.6. Also, the “mean radiological evaluation score” value in data set [4] (low dose group: 15 mg/kg iv every day) turned out to be 0.6. In addition, the “mean radiological evaluation score” value in data set [4] (oral group: 100 mg/kg every other day by gavage) worked out at 1.6.
